From patent US20160130577A1, “NUCLEOTIDE SEQUENCE MOTIFS DIRECTING NUCLEIC ACID LOCATION TO EXTRACELLULAR VESICLES” (FUNDACIÓN CENTRO NACIONAL DE INVESTIGACIONES …, priority 2012, published 2016)

Key:
hnRNPA2B1 sumoylation = test: Western blot of hnRNPA2B1 molecular weight in EVs with sumoylation inhibitor; type: cell-based, human; conditions: anacardic acid 100 μM 4 h, then diluted 1:4 overnight; versus DMSO
Procedure: (§1) To confirm whether the higher molecular weight of EVs hnRNPA2B1 was due to sumoylation, we cultured Jurkat T cells in the presence of the specific sumoylation inhibitor anacardic acid (AA). Briefly, cells were cultured with anacardic acid (100 μM) (Sigma) or 6 DMSO for 4 h at 37° C. Cells were then diluted 1:4 and incubated overnight. EVs and cells were resuspended in buffer 1 for western blotting or hnRNPA2B1 immunoprecipitation (FIG. 13B).

Jurkat T cells [1] = test: qPCR of miRNA levels in EVs from control or AA-treated cells; type: cell-based, human; conditions: anacardic acid 100 μM versus DMSO
sumo-conjugated proteins = test: Western blot of cell extracts for SUMO-1 (sumoylation inhibitor efficiency); type: cell-based, human; conditions: anacardic acid versus DMSO
Procedure: (§2) FIG. 13. Assessment of sumoylation inhibitor efficiency. (A) Western blot analysis of hnRNPA1 in T cells and their EVs. (B) Representative western blot showing the decrease in sumo-conjugated proteins in the presence of anacardic acid. Cells were incubated with anacardic acid (AA) or DMSO (control condition, CONT) and cell extracts were blotted for SUMO-1. (C) Representative western blot showing no changes in EV secretion and cell death in the presence of anacardic acid. Cells were incubated with anacardic acid (AA) or DMSO (CONT), and EV were purified by ultracentrifugation and blotted for CD81 and cytochrome c.
as §1

hnRNPA2B1 [2] = test: hnRNPA2B1 IP-qPCR from EV lysates of control or AA-treated cells; type: cell-based, human; conditions: EV lysates from AA-treated versus control cells
Procedure: as §1

Jurkat T cells [3] = test: Western blot of EVs for CD81 and cytochrome c (EV secretion, cell death); type: cell-based; conditions: anacardic acid versus DMSO
Procedure: as §2, §1

NUCL = target: T1, NUCL (Homo sapiens, UniProt P19338); test: pull-down of EV extracts with biotinylated miRNA-coated streptavidin beads, mass spectrometry; type: binding; conditions: NUCL precipitated from EV extracts of human T lymphoblasts
T1 construct: endogenous in cells; host or cells: extracellular vesicles from primary human T lymphoblasts
Procedure: (§3) To analyze the molecular mechanism that controls the packaging of miRNAs presenting the motifs of the invention in EVs, a search was performed of the proteins present in EVs and which bind specifically to EVmiRNAs. For this purpose, extracts of isolated EVs from human T lymphoblasts were incubated in the presence of streptavidin beads coated with biotinylated EVmiRNA miR-198, or with biotinylated CLmiRNA miR-17. The analysis of EVs-coupled beads was performed by FACS. Briefly, Evs were obtained by ultracentrifugation and sucrose gradient flotation, resuspended in PBS and coupled to 4 μm aldehyde-sulfate beads (Invitrogen) overnight at room temperature in rotation. Beads were washed and blocked for 60 min at room temperature in 4% BSA in PBS. For intracellular staining, bead-bound Evs were permeabilized and fixed for 5 min at room temperature with 0.2% TX, 2% FA in PBS. Beads were incubated with antihnRNPA2B1 (Santa Cruz) or anti-CD81 (5A6, Santa Cruz) for 1 h at 4° C., washed and incubated with Alexa-488-goat-anti-mouse IgG (Invitrogen) for 30 min. Beads were acquired on a FACSCalibur (BD) and data were analyzed with FlowJo software (Tree Star). Negative controls were obtained with EV-coupled beads incubated with the secondary antibody. The proteins collected were identified by high performance mass spectrometry. As negative controls, uncoated or poly-A-coated streptavidin beads were used. Briefly, proteins were in-gel digested using a previously-described protocol. Briefly, 75 μl of beads were suspended in 25 μl sample buffer and loaded in 2.8-cm-wide wells of an SDS-PAGE gel. The run was stopped as soon as the front entered 3 mm into the resolving gel; the protein band was visualized by Coomassie staining, excised and digested overnight at 37° C. with 60 ng/μl trypsin at 5:1 protein:trypsin (w/w) ratio in 50 mM ammonium bicarbonate, pH 8.8 containing 10% ACN. The resulting tryptic peptides were extracted by 1 h incubation in 12 mM ammonium bicarbonate, pH 8.8. TFA was added to a final concentration of 1% and the peptides were finally desalted onto C18 Oasis cartridges and dried down. Peptide identification by mass spectrometry was performed as described. Briefly, the peptides were resuspended and injected onto a C-18 reversed phase (RP) nano-column (75 μm 2 I.D.×25 cm, Acclaim PepMap100, Thermo Scientific) and analyzed in a continuous acetonitrile gradient consisting of 0-43% B in 90 min, 50-90% B in 1 min (B=90% acetonitrile, 0.5% acetic acid). A flow rate of ca. 300 nL/min was used to elute peptides from the RP nano-column to an emitter nanospray needle for real time ionization and peptide fragmentation on an LTQ XP Orbitrap mass spectrometer (Thermo Fisher, San José, Calif., USA). An enhanced FT spectrum (30.000 resolution) followed by MS/MS spectra from most intense ten parent ions were performed along the chromatographic run (130 min). Dynamic exclusion was set at 30 s. The MS/MS raw files were searched against the Human Swissprot database (Uniprot release 14.0, 19929 sequence entries for human) supplemented with porcine trypsin and bacterial Streptavidin. SEQUEST results were validated using the probability ratio method and false discovery rates calculated using the refined method. Peptide and scan counting was performed assuming as positive events those with a FDR equal to or lower than 5%.

hnRNPA1 = target: T2, hnRNPA1 (Homo sapiens, UniProt P09651); test: as above; type: binding
T2 construct: endogenous in cells; host or cells: extracellular vesicles from primary human T lymphoblasts
Procedure: as §3

HNRPC = target: T3, HNRPC (Homo sapiens, UniProt P07910); test: as above; type: binding; conditions: HNRPC precipitated from EV extracts of human T lymphoblasts
T3 construct: endogenous in cells; host or cells: extracellular vesicles from primary human T lymphoblasts
Procedure: as §3

HNRPU = target: T4, HNRPU (Homo sapiens, UniProt Q00839); test: as above; type: binding; conditions: HNRPU precipitated from EV extracts of human T lymphoblasts
T4 construct: endogenous in cells; host or cells: extracellular vesicles from primary human T lymphoblasts
Procedure: as §3

RS3 = target: T5, RS3 (Homo sapiens, UniProt P23396); test: as above; type: binding; conditions: RS3 precipitated from EV extracts of human T lymphoblasts
T5 construct: endogenous in cells; host or cells: extracellular vesicles from primary human T lymphoblasts
Procedure: as §3

RS4X = target: T6, RS4X (Homo sapiens, UniProt P62701); test: as above; type: binding; conditions: RS4X precipitated from EV extracts of human T lymphoblasts
T6 construct: endogenous in cells; host or cells: extracellular vesicles from primary human T lymphoblasts
Procedure: as §3

hnRNPA2B1 [4] = test: as above; type: binding, human
Procedure: To analyze the molecular mechanism that controls the packaging of miRNAs presenting the motifs of the invention in EVs, a search was performed of the proteins present in EVs and which bind specifically to EVmiRNAs. For this purpose, extracts of isolated EVs from human T lymphoblasts were incubated in the presence of streptavidin beads coated with biotinylated EVmiRNA miR-198, or with biotinylated CLmiRNA miR-17. The analysis of EVs-coupled beads was performed by FACS. Briefly, Evs were obtained by ultracentrifugation and sucrose gradient flotation, resuspended in PBS and coupled to 4 μm aldehyde-sulfate beads (Invitrogen) overnight at room temperature in rotation. Beads were washed and blocked for 60 min at room temperature in 4% BSA in PBS. For intracellular staining, bead-bound Evs were permeabilized and fixed for 5 min at room temperature with 0.2% TX, 2% FA in PBS. […] Beads were acquired on a FACSCalibur (BD) and data were analyzed with FlowJo software (Tree Star). […] Briefly, the peptides were resuspended and injected onto a C-18 reversed phase (RP) nano-column (75 μm 2 I.D.×25 cm, Acclaim PepMap100, Thermo Scientific) and analyzed in a continuous acetonitrile gradient consisting of 0-43% B in 90 min, 50-90% B in 1 min (B=90% acetonitrile, 0.5% acetic acid). […] SEQUEST results were validated using the probability ratio method and false discovery rates calculated using the refined method. […]
Target sequence in this assay (P22626 15-353 limits assumed): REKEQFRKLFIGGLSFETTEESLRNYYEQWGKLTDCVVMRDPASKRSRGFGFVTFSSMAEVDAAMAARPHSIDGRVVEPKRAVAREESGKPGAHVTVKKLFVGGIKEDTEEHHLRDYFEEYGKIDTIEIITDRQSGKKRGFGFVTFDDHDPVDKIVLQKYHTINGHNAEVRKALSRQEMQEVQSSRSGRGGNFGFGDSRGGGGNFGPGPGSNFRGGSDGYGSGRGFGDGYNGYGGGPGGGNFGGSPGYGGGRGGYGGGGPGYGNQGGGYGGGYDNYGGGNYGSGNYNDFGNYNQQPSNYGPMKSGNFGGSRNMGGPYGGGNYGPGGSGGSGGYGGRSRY

T2 sequence (P09651 whole entry): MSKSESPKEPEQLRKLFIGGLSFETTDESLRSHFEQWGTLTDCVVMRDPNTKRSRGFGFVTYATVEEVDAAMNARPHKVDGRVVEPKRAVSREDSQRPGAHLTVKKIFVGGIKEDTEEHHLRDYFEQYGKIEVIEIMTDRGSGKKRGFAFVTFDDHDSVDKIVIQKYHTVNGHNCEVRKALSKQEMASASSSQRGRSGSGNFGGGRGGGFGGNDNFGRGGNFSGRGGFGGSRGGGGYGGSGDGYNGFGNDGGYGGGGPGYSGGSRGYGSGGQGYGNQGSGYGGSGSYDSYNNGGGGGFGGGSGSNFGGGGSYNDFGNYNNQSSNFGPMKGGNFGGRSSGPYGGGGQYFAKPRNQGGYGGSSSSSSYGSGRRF
T3 sequence (P07910 whole entry): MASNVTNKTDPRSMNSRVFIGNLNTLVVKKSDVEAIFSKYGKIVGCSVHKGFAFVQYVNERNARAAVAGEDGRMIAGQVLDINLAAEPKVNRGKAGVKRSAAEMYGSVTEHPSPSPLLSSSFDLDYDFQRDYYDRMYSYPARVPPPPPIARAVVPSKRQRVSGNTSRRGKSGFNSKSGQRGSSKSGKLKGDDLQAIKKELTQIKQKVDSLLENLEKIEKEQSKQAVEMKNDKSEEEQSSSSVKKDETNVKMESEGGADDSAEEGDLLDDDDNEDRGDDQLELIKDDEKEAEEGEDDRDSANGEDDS
T1 sequence (P19338 whole entry): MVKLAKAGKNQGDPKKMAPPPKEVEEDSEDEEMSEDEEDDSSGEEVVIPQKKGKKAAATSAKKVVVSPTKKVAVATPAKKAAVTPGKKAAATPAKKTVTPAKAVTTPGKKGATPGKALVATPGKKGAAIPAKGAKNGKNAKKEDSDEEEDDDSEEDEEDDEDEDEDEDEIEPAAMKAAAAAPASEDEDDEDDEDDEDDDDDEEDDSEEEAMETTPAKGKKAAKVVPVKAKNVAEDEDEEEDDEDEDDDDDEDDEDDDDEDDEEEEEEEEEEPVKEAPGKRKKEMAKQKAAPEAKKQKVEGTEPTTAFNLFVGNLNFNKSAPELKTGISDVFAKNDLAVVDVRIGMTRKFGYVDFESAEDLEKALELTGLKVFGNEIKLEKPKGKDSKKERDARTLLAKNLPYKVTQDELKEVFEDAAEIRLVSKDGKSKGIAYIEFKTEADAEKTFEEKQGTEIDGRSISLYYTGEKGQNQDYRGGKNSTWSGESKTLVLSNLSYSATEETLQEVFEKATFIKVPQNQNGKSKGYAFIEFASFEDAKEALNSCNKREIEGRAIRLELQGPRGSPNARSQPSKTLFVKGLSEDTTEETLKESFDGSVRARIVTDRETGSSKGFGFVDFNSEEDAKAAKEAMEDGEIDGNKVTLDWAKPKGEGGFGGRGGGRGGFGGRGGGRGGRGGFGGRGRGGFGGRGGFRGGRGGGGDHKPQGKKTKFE
T4 sequence (Q00839 whole entry): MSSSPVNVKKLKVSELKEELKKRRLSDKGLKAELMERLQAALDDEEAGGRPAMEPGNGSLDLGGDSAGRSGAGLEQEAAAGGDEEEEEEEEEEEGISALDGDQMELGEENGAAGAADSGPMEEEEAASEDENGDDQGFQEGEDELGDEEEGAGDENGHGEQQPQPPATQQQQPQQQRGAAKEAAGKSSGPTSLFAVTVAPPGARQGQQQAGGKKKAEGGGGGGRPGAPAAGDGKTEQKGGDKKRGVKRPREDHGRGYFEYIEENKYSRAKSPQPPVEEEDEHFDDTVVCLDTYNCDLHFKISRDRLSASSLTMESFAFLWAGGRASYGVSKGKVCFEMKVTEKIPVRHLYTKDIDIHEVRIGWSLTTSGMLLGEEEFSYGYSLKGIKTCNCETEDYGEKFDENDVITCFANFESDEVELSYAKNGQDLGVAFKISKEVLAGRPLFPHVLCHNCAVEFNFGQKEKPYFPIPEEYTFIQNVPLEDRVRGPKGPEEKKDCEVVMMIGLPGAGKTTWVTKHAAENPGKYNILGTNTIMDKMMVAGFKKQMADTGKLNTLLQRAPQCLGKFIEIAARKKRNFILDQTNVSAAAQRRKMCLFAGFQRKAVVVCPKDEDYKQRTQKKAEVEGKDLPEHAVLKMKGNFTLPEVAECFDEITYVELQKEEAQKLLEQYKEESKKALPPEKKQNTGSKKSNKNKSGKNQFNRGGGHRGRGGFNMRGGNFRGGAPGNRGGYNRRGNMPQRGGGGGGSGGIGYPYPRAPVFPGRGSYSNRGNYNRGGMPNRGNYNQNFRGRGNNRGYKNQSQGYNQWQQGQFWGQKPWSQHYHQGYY

Number of peptides identified by mass spectrometry (NUCL) | Number of peptides identified by mass spectrometry (hnRNPA1; hnRNPA1 precipitated from EV extracts of human T lymphoblasts) | binding of hnRNPA1 (in words) (hnRNPA1; pull-down from EV extracts) | Number of peptides identified by mass spectrometry (HNRPC) | Number of peptides identified by mass spectrometry (HNRPU) | Number of peptides identified by mass spectrometry (RS3) | Number of peptides identified by mass spectrometry (RS4X) | binding of hnRNPA2B1 (in words) (hnRNPA2B1 [4]; pull-down from EV extracts) | Molecule | low-molecular weight hnRNPA2B1 band in EVs (hnRNPA2B1 sumoylation) | levels of miR-17 in EVs (Jurkat T cells [1]) | levels of miR-18 in EVs (Jurkat T cells [1]) | levels of miR-198 in EVs (Jurkat T cells [1]) | sumo-conjugated proteins (SUMO-1 blot) (sumo-conjugated proteins) | miR-198 bound to hnRNPA2B1 (IP-qPCR) (hnRNPA2B1 [2]) | EV secretion (CD81 blot) (Jurkat T cells [3]) | cell death (cytochrome c blot) (Jurkat T cells [3]) | Number of peptides identified by mass spectrometry (hnRNPA2B1 [4]; hnRNPA2B1 precipitated from EV extracts of human T lymphoblasts)
– | – | – | – | – | – | – | – | CCCCCCCCCCCCCCCc1cccc(O)c1C(=O)O [anacardic acid] | could be readily detected | did not change | did not change | reduced | decrease | decreased binding | no changes | no changes | –
8 | 0 | no binding | 0 | 0 | 0 | 0 | no binding | poly-A | – | – | – | – | – | – | – | – | 0
